Laboratory results reported in US6734186B1, “Compounds for the treatment of female sexual dysfunction” (Pfizer Inc., priority 1999, dated 2004).

What was measured:
isolated rabbit vagina [1] = assay: Enhancement of VIP-induced relaxation of precontracted isolated rabbit vagina by test agents; format: cell-based; conditions: for Percentage enhancement of VIP(Sequence No. 8)-induced relaxation: PDE inhibitor at selective dose, isolated rabbit vagina, 1 μM phenylephrine; for effect on VIP-induced and nerve-mediated relaxations of isolated tissue: at clinically relevant doses
Protocol: (§1) 3.7 (a). Rabbit vagina in vitro preparation:—Female New Zealand white rabbits (2.0-3.0 kg) were killed by cervical dislocation. The abdominal cavity was opened and the vagina excised. Tissue strips were mounted longitudinally in Wesley Co. 5 ml silanised organ chambers with braided silk sutures (6/0 gauge) at an initial resting tension of 1.5 g in Krebs bicarbonate buffer maintained at 37° C. and gassed with 95%O2/5%CO2. The upper ligature of each tissue strip was attached to a 10 g capacity force-displacement transducer and changes in isometric force were measured and recorded using a DART in vitro data capture system. Tissues were allowed to equilibrate for 1.5 hours and were regularly washed with Krebs.
(§2) Each tissue was contracted using 1 μM bath concentration of phenylephrine. […] Tissues then received either a test agent (eg NEP or PDE inhibitor) or DMSO vehicle (time matched control).
(§3) For the purpose of curve fitting the minimum relaxation response was constrained to 0% and the maximum relaxation response was allowed to free fit.

[2] = system: anaesthetised rabbit model of sexual arousal; assay: Increase in clitoral blood flow after iv infusion of vasoactive agents, anaesthetised rabbit model; format: in vivo; conditions: forskolin 40 nmol/kg iv
From the text: (§4) A ventral midline incision was made, at the caudal end of the pubis, to expose the pubic area. Connective tissue was removed to expose the tunica of the clitoris, ensuring that the wall was free from small blood vessels. The external vaginal wall was also exposed by removing any connective tissue. One laser Doppler flow probe was inserted 3 cm into the vagina, so that half the probe shaft was still visible. A second probe was positioned so that it lay just above the external clitoral wall. The position of these probes was then adjusted until a signal was obtained. A second probe was placed just above the surface of a blood vessel on the external vaginal wall. Both probes were clamped in position.
(§5) Vaginal and clitoral blood flow was recorded either as numbers directly from the Flowmeter using Po-ne-mah data acquisition software (Ponemah Physiology Platform, Gould Instrument Systems Inc), or indirectly from Gould chart recorder trace. Calibration was set at the beginning of the experiment (0-125 ml/min/100 g tissue).

isolated rabbit vagina [3] = assay: Relaxation of precontracted (1 μM phenylephrine) isolated rabbit vaginal strips; format: cell-based; conditions: Oryctolagus cuniculus, precontracted with 1 μM phenylephrine
Protocol: as §1, §2, §3

[4] = system: anaesthetised rabbit model of sexual arousal; assay: Enhancement of VIP-induced increases in vaginal blood flow, anaesthetised rabbit model; format: in vivo; conditions: for effect on VIP-induced increases in vaginal blood flow: at clinically relevant doses
From the text: as §4, §5
An initial infusion of Hepsaline (50UI/ml) was infused to act as a negative control.
(§6) NEP (Neutral Endopeptidase EC3.4.24.11; Sequence No. 1) inhibitors, phosphodiesterase type 5 (PDE5) inhibitors and NPY Y1 antagonists were made up in saline or 5% glucose solution (200 μl 50% glucose in 1.8 ml water for injection). PDEcAMP inhibitors were dissolved in a 40% ethanol solution (200 μl 50% glucose in 1.8 ml water/ethanol for injection).

[5] = system: anaesthetised rabbit model of sexual arousal; assay: Enhancement of pelvic nerve stimulated (PNS) increases in vaginal blood flow, anaesthetised rabbit model; format: in vivo; conditions: for effect on pelvic nerve stimulated increases in vaginal blood flow: at clinically relevant doses
From the text: (§7) A ventral midline incision was made into the abdominal cavity. The incision was about 5 cm in length just above the pubis. The fat and muscle was bluntly dissected away to reveal the hypogastric nerve which runs down the body cavity. It was essential to keep close to the side curve of the pubis wall in order to avoid damaging the femoral vein and artery which lie above the pubis. The sciatic and pelvic nerves lie deeper and were located after further dissection on the dorsal side of the rabbit. Once the sciatic nerve is identified, the pelvic nerve was easily located. The term pelvic nerve is loosely applied; anatomy books on the subject fail to identify the nerves in sufficient detail. However, stimulation of the nerve causes an increase in vaginal and clitoral blood flow, and innervation of the pelvic region. The pelvic nerve was freed away from surrounding tissue and a Harvard bipolar stimulating electrode was placed around the nerve. The nerve was slightly lifted to give some tension, then the electrode was secured in position. Approximately 1 ml of light paraffin oil was placed around the nerve and electrode. This acts as a protective lubricant to the nerve and prevents blood contamination of the electrode. The electrode was connected to a Grass S88 Stimulator. The pelvic nerve was stimulated using the following parameters: −5V, pulse width 0.5 ms, duration of stimulus 10 seconds and a frequency range of 2 to 16 Hz. Reproducible responses were obtained when the nerve was stimulated every 15-20 minutes.
A frequency response curve was determined at the start of each experiment in order to determine the optimum frequency to use as a sub-maximal response, normally 4 Hz. The compound(s) to be tested were infused, via the femoral vein, using a Harvard 22 infusion pump allowing a continuous 15 minute stimulation cycle.
as §4, §5, §6

isolated rabbit vagina [6] = assay: Electrical field stimulated (EFS) relaxation of isolated rabbit vagina; format: cell-based
Protocol: Rabbit vaginal strips were prepared as described in Section 3.7 (a). The tissue strips were mounted between two platinum electrodes placed at the top and bottom of the organ chamber approximately 4 cm apart. Each tissue was contracted using 1 μM bath concentration of phenylephrine. When the contractile response reached a stable plateau (15 minutes), the tissues underwent a pre-treatment electrical field stimulated (EFS) induced relaxation curve. This was performed between 40-60 volts using sequential frequencies of 2, 4, 8 and 16 Hz delivered as 10 second trains of 0.5 milli second pulse width. The tissues were allowed to return to base line pre-contractile tension between each frequency (5 minutes) and the size of the relaxation response recorded.
After completion of the pre-treatment EFS response curve, all tissues were washed for 15 minutes, allowing the tissues to return to the baseline tension. Tissues then received either a test agent (eg NEP or PDE inhibitor, nitric oxide synthase [NOS] inhibitor) or DMSO vehicle (time matched control). Tissues were re-contracted with phenylephrine (1 μM) 15 minutes after the addition of compound or vehicle and an EFS-induced relaxation response curve determined as described above. […]

[7] = system: anaesthetised rabbit model of sexual arousal; assay: Enhancement of pelvic nerve stimulated increases in clitoral blood flow, anaesthetised rabbit model; format: in vivo
From the text: as §7
A frequency response curve was determined at the start of each experiment in order to determine the optimum frequency to use as a sub-maximal response, normally 4 Hz. The compound(s) to be tested were infused, via the femoral vein, using a Harvard 22 infusion pump allowing a continuous 15 minute stimulation cycle. […]
Vaginal and clitoral blood flow was recorded either as numbers directly from the Flowmeter using Po-ne-mah data acquisition software (Ponemah Physiology Platform, Gould Instrument Systems Inc), or indirectly from Gould chart recorder trace. […]

Cc1nc(O)c(C#N)cc1-c1ccncc1 [FIII, Milrinone] was tested. Which “Percentage enhancement of VIP(Sequence No. 8)-induced relaxation” value (isolated rabbit vagina [1]) did it give?
The value was 220%.

What about the “potentiation of VIP EC50 values” (isolated rabbit vagina [1]; inhibitor at 3.4 μM) of the same compound?
The value was 220%.

For C=C[C@@]1(C)CC(=O)[C@]2(O)[C@@]3(C)[C@@H](O)CCC(C)(C)[C@@H]3[C@H](O)[C@H](OC(C)=O)[C@@]2(C)O1 [forskolin], which “increase in clitoral blood flow” value [2] is on record?
Its value is 156%.

What about the IC50 (isolated rabbit vagina [3]; FIG. 4c) of the same compound?
Its IC50 is ~300 nM.

And the EC50 (isolated rabbit vagina [3]; read-out: EC50 for relaxation in isolated vaginal tissue)?
The EC50 was 320 ± 20 nM.

How did the “Percentage enhancement of VIP(Sequence No. 8)-induced relaxation” value (isolated rabbit vagina [1]) turn out when COc1ccc(C2CNC(=O)C2)cc1OC1CCCC1 (centres unmarked) [FIV, Rolipram] was run?
Its value is 160%.

What about the “potentiation of VIP EC50 values” (isolated rabbit vagina [1]; inhibitor at 686 nM) of the same compound?
Its value is 160%.

Which results are given for COc1ccc(Cc2nc3c(ncn3C(CCCc3ccccc3)C(C)=O)c(=O)[nH]2)cc1OC (centres unmarked) [FII, 9-(1-acetyl-4-phenylbutyl)-2-[(3,4-dimethoxyphenyl)methyl]-1,9-dihydro-6H-purin-6-one]?
Percentage enhancement of VIP(Sequence No. 8)-induced relaxation (isolated rabbit vagina [1]): 130%; potentiation of VIP EC50 values (isolated rabbit vagina [1]; inhibitor at 8 nM): 130%; enhancement of peak increase in blood flow induced by VIP-stimulation ([4]; 200 μg/kg): circa 15±3%; enhancement of duration of VIP-induced increases in peak vaginal blood flow ([4]; VIP 60 μg/kg, measured at 50% amplitude): over 100%; effect on VIP-induced increases in vaginal blood flow [4]: enhances; effect on VIP-induced enhanced vaginal blood flow ([4]; inhibitor 25 μg/kg iv bolus, VIP 60 μg/kg iv bolus): potentiates the duration; enhancement of peak increase in blood flow induced by pelvic nerve stimulation ([5]; 200 μg/kg, 4 Hz): circa 15±3%; enhancement of peak increase in PNS vaginal blood flow ([5]; 500 μg/kg iv, 4 Hz): 86.8±21.9%; effect on pelvic nerve stimulated increases in vaginal blood flow [5]: enhances

Which “effect on VIP-induced and nerve-mediated relaxations of isolated tissue” value (isolated rabbit vagina [1]) does the source give for C=CCC(CC1(C(=O)NC2CCCC(C(=O)OCC)C2)CCCC1)C(=O)O (centres unmarked) [FV, cyclohexanecarboxylic acid, 3-[[[1-(2-carboxy-4-pentenyl)cyclopentyl]carbonyl]amino]-,1-ethyl ester] here?
The value was “enhance”.

What about the “effect on VIP-induced increases in vaginal blood flow” value [4] of the same compound?
Its value is “enhance”.

What about the “effect on pelvic nerve stimulated increases in vaginal blood flow” value [5] of the same compound?
The value was “enhance”.

NC(=NCCC[C@H](N)C(=O)O)N[N+](=O)[O-] [L-NOARG] was tested. Which “inhibition of EFS-induced relaxations” value (isolated rabbit vagina [6]; 300 μM) did it give?
Its value is 50%.

Which results are given for C=CCC(CC1(C(=O)NC2CCCC(C(=O)O)C2)CCCC1)C(=O)O (centres unmarked) [FVI, cyclohexanecarboxylic acid, 3-[[[1-(2-carboxy-4-pentenyl)cyclopentyl]carbonyl]amino]-]?
effect on VIP-induced and nerve-mediated relaxations of isolated tissue (isolated rabbit vagina [1]): enhance; increase in duration of VIP-induced elevation of vaginal blood flow ([4]; VIP dose producing maximal flow increases): circa 80%; duration of VIP-induced elevation in presence of inhibitor ([4]; VIP dose producing maximal flow increases, 11 minutes without inhibitor): 20 min; effect on VIP-induced increases in vaginal blood flow [4]: enhance; effect on VIP-induced enhanced vaginal blood flow ([4]; maximal VIP 60 μg/kg): only potentiate the duration; effect on VIP-induced enhanced vaginal blood flow ([4]; submaximal VIP 6.0 μg/kg): both potentiates the amplitude and prolongs the duration; potentiation of peak VIP-induced increase in vaginal blood flow ([4]; submaximal VIP 6.0 μg/kg): 95±6%; prolongation of duration of VIP-induced increase in vaginal blood flow ([4]; submaximal VIP 6.0 μg/kg): circa 140%; duration of VIP-induced increase in presence of inhibitor ([4]; submaximal VIP 6.0 μg/kg, 7 minutes without inhibitor): > 17 min; enhancement of peak increase in PNS clitoral blood flow ([7]; 1.0 mg/kg iv, 4 Hz): 131%; maximal enhancement of peak increase in PNS clitoral blood flow (up to) ([7]; compared to vehicle control increases): up to 131%; effect on basal (unstimulated) clitoral blood flow ([7]; no pelvic nerve stimulation): no effect; enhancement of peak increase in PNS vaginal blood flow ([5]; 0.1 mg/kg iv, submaximal stimulation 4 Hz): 35.0±7.6%; enhancement of peak increase in PNS vaginal blood flow ([5]; 0.3 mg/kg iv, submaximal stimulation 4 Hz, listed as NEP inhibitor): 40%; effect on pelvic nerve stimulated increases in vaginal blood flow [5]: enhance; maximal enhancement of peak increase in PNS vaginal blood flow (up to) ([5]; compared to time matched control increases): up to 53%; effect on basal (unstimulated) vaginal blood flow ([5]; no pelvic nerve stimulation): no effect; effect on non-nitric oxide NANC relaxation induced by EFS (isolated rabbit vagina [6]; 1 μM): enhances
